Data on 21 compounds can be found in US9376392B2, “2-(tert-butoxy)-2-(7-methylquinolin-6-yl) acetic acid derivatives for treating AIDS” (Gilead Sciences, Inc., priority 2012, dated 2016).

One assay concerns HIV-IIIb (MT-4 cells). The assay is described as follows: Test A: Antiviral Assays in MT4 Cells. The format is cell-based. The conditions noted are these: MT4, 120 h, MT-4 cells infected with HIV-IIIb, 5 days of incubation, CellTiter-Glo readout. The method, then: The antiviral properties of a compound disclosed herein may be determined using Test A described below.
Test A: Antiviral Assays in MT4 Cells
For the antiviral assay utilizing MT-4 cells, 0.4 μL of […] test concentration of 3-fold serially diluted compound in DMSO was added to 40 μL of cell growth medium (RPMI 1640, 10% FBS, 1% penicillin/Streptomycin, 1% L-Glutamine, 1% HEPES) in each well of 384-well assay plates (10 concentrations) in quadruplicate.
1 mL aliquots of 2×10e6 MT-4 cells are pre-infected for 1 and 3 hrs respectively, @ 37° C. with 25 μL (MT4) or of either cell growth medium (mock-infected) or a fresh 1:250 dilution of an HIV-IIIb concentrated ABI stock (0.004 m.o.i. for MT4 cells). Infected and uninfected cells are diluted in cell growth medium and 35 μL of 2000 (for MT4) cells is added to each well of the assay plates.
Assay plates were then incubated in a 37° C. incubator. After 5 days of incubation, […] 2× concentrated CellTiter-Glo™ Reagent (catalog #G7573, Promega Biosciences, Inc., Madison, Wis.) was added to each well of the assay plate. Cell lysis was carried out by incubating at room temperature for 2-3 min and then chemiluminescence was read using the Envision reader (PerkinElmer).
Compound `Cc1cc2nc(OCc3cccc(S(C)(=O)=O)c3)ccc2c(-c2ccc3c4c(ccnc24)CCO3)c1[C@H](OC(C)(C)C)C(=O)O` (atropisomer, axis not shown) [Example 4, (S)-2-tert-Butoxy-2-((R)-5-(2,3-dihydropyrano[4,3,2-de]quinolin-7-yl)-7-methyl-2-(3-(methylsulfonyl)benzyloxy)quinolin-6-yl)acetic acid] gave a concentration giving a half-maximal response (EC50) of 0.0136 µM.
Same read-out and setting: as for `Cc1cc2c(ccc(=O)n2Cc2ccc(Oc3ccccc3)cc2)c(-c2ccc3c4c(ccnc24)CCO3)c1[C@H](OC(C)(C)C)C(=O)O` (atropisomer, axis not shown) [Example 32, (S)-2-tert-Butoxy-2-((R)-5-(2,3-dihydropyrano[4,3,2-de]quinolin-7-yl)-7-methyl-2-oxo-1-(4-phenoxybenzyl)-1,2-dihydroquinolin-6-yl)acetic acid], the figure is 3.06 µM; as for `Cc1cc2c(ccc(=O)n2Cc2cncnc2)c(-c2ccc3c4c(ccnc24)CCO3)c1[C@H](OC(C)(C)C)C(=O)O` (atropisomer, axis not shown) [Example 25, (S)-2-tert-butoxy-2-((R)-5-(2,3-dihydropyrano[4,3,2-de]quinolin-7-yl)-7-methyl-2-oxo-1-(pyrimidin-5-ylmethyl)-1,2-dihydroquinolin-6-yl)acetic acid], 0.472 µM; as for `Cc1cc2c(ccc(=O)n2Cc2cccnc2)c(-c2ccc3c4c(ccnc24)CCO3)c1[C@H](OC(C)(C)C)C(=O)O` (atropisomer, axis not shown) [Example 22, (S)-2-tert-Butoxy-2-((R)-5-(2,3-dihydropyrano[4,3,2-de]quinolin-7-yl)-7-methyl-2-oxo-1-(pyridin-3-ylmethyl)-1,2-dihydroquinolin-6-yl)acetic acid], 0.318 µM.
On the same count and under the same terms, as for `Cc1cc2c(ccc(=O)n2Cc2ccccc2OC(F)(F)F)c(-c2ccc3c4c(ccnc24)CCO3)c1[C@H](OC(C)(C)C)C(=O)O` (atropisomer, axis not shown) [Example 15, (S)-2-tert-Butoxy-2-((R)-5-(2,3-dihydropyrano[4,3,2-de]quinolin-7-yl)-7-methyl-2-oxo-1-(2-(trifluoromethoxy)benzyl)-1,2-dihydroquinolin-6-yl)acetic acid], the figure is 0.359 µM.
`Cc1cc2nc(OCc3ccc(OC(F)(F)F)cc3)ccc2c(-c2ccc3c4c(ccnc24)CCO3)c1[C@H](OC(C)(C)C)C(=O)O` (atropisomer, axis not shown) [Example 13, (S)-2-tert-Butoxy-2-((R)-5-(2,3-dihydropyrano[4,3,2-de]quinolin-7-yl)-7-methyl-2-(4-(trifluoromethoxy)benzyloxy)quinolin-6-yl)acetic acid] registered an EC50 of 0.285 µM.
With `CNc1ccc2c(-c3ccc4c5c(ccnc35)CCO4)c([C@H](OC(C)(C)C)C(=O)O)c(C)cc2n1` (atropisomer, axis not shown) [Example 46, (S)-2-tert-Butoxy-2-((R)-5-(2,3-dihydropyrano[4,3,2-de]quinolin-7-yl)-7-methyl-2-(methylamino)quinolin-6-yl)acetic acid], the 50% effective concentration (EC50) was found to be 0.265 µM.
In turn, `Cc1cc2c(ccc(=O)n2Cc2cccc(C(F)F)c2)c(-c2ccc3c4c(ccnc24)CCO3)c1[C@H](OC(C)(C)C)C(=O)O` (atropisomer, axis not shown) [Example 30, (S)-2-tert-Butoxy-2-((R)-1-(3-(difluoromethyl)benzyl)-5-(2,3-dihydropyrano[4,3,2-de]quinolin-7-yl)-7-methyl-2-oxo-1,2-dihydroquinolin-6-yl)acetic acid] registered a half-maximal effective concentration (EC50) of 0.0347 µM.
On to `Cc1cc2c(ccc(=O)n2Cc2cccc3c2cnn3C)c(-c2ccc3c4c(ccnc24)CCO3)c1[C@H](OC(C)(C)C)C(=O)O` (atropisomer, axis not shown) [Example 28, (S)-2-tert-Butoxy-2-((R)-5-(2,3-dihydropyrano[4,3,2-de]quinolin-7-yl)-7-methyl-1-((1-methyl-1H-indazol-4-yl)methyl)-2-oxo-1,2-dihydroquinolin-6-yl)acetic acid], for which the EC50 was 0.0458 µM.
The same measure, in the same setting: to `Cc1cc2nc(OCc3cccc(C(F)(F)F)c3)ccc2c(-c2ccc3c4c(ccnc24)CCO3)c1[C@H](OC(C)(C)C)C(=O)O` (atropisomer, axis not shown) [Example 3, (S)-2-tert-Butoxy-2-((R)-5-(2,3-dihydropyrano[4,3,2-de]quinolin-7-yl)-7-methyl-2-(3-(trifluoromethyl)benzyloxy)quinolin-6-yl)acetic acid] belongs 0.123 µM.
`Cc1cc2c(ccc(=O)n2CCCc2ccccc2)c(-c2ccc3c4c(ccnc24)CCO3)c1[C@H](OC(C)(C)C)C(=O)O` (atropisomer, axis not shown) [Example 24, (S)-2-tert-Butoxy-2-((R)-5-(2,3-dihydropyrano[4,3,2-de]quinolin-7-yl)-7-methyl-2-oxo-1-(3-phenylpropyl)-1,2-dihydroquinolin-6-yl)acetic acid] showed a concentration giving a half-maximal response (EC50) of 0.687 µM.
Consider `Cc1cccc(-n2c(=O)ccc3c(-c4ccc5c6c(ccnc46)CCO5)c([C@H](OC(C)(C)C)C(=O)O)c(C)cc32)c1` (atropisomer, axis not shown) [Example 35, (S)-2-tert-Butoxy-2-((R)-5-(2,3-dihydropyrano[4,3,2-de]quinolin-7-yl)-7-methyl-2-oxo-1-m-tolyl-1,2-dihydroquinolin-6-yl)acetic acid], for which a half-maximal response (EC50) required 1.47 µM.
As for `Cc1cc2nc(N)ccc2c(-c2ccc3c4c(ccnc24)CCO3)c1[C@H](OC(C)(C)C)C(=O)O` (atropisomer, axis not shown) [Example 47, (S)-2-((R)-2-Amino-5-(2,3-dihydropyrano[4,3,2-de]quinolin-7-yl)-7-methylquinolin-6-yl)-2-tert-butoxyacetic acid], the midpoint of the response, the EC50, lay at 0.292 µM.
The same measure, in the same setting: to `Cc1cc2nc(C#N)ccc2c(-c2ccc3c4c(ccnc24)CCO3)c1[C@H](OC(C)(C)C)C(=O)O` (atropisomer, axis not shown) [Example 50, (S)-2-tert-Butoxy-2-((R)-2-cyano-5-(2,3-dihydropyrano[4,3,2-de]quinolin-7-yl)-7-methylquinolin-6-yl)acetic acid] belongs 0.166 µM; to `Cc1cc2c(ccc(=O)n2Cc2cccc(S(C)(=O)=O)c2)c(-c2ccc3c4c(ccnc24)CCO3)c1[C@H](OC(C)(C)C)C(=O)O` (atropisomer, axis not shown) [Example 2, (S)-2-tert-Butoxy-2-((R)-5-(2,3-dihydropyrano[4,3,2-de]quinolin-7-yl)-7-methyl-1-(3-(methylsulfonyl)benzyl)-2-oxo-1,2-dihydroquinolin-6-yl)acetic acid], 0.46 µM.
Compound `Cc1cc2c(ccc(=O)n2Cc2ccc(OC(F)(F)F)cc2)c(-c2ccc3c4c(ccnc24)CCO3)c1[C@H](OC(C)(C)C)C(=O)O` (atropisomer, axis not shown) [Example 16, (S)-2-tert-Butoxy-2-((R)-5-(2,3-dihydropyrano[4,3,2-de]quinolin-7-yl)-7-methyl-2-oxo-1-(4-(trifluoromethoxy)benzyl)-1,2-dihydroquinolin-6-yl)acetic acid] registered an EC50 of 1.61 µM.
For `Cc1cc2c(ccc(=O)n2Cc2cccc(C(F)(F)F)c2)c(-c2ccc3c4c(ccnc24)CCO3)c1[C@H](OC(C)(C)C)C(=O)O` (atropisomer, axis not shown) [Example 5, (S)-2-tert-Butoxy-2-((R)-5-(2,3-dihydropyrano[4,3,2-de]quinolin-7-yl)-7-methyl-2-oxo-1-(3-(trifluoromethyl)benzyl)-1,2-dihydroquinolin-6-yl)acetic acid], the 50% effective concentration (EC50) was 0.0307 µM.
Same read-out and setting: to `COc1cc(Cn2c(=O)ccc3c(-c4ccc5c6c(ccnc46)CCO5)c([C@H](OC(C)(C)C)C(=O)O)c(C)cc32)cc(OC)c1` (atropisomer, axis not shown) [Example 33, (S)-2-tert-Butoxy-2-((R)-5-(2,3-dihydropyrano[4,3,2-de]quinolin-7-yl)-1-(3,5-dimethoxybenzyl)-7-methyl-2-oxo-1,2-dihydroquinolin-6-yl)acetic acid] belongs 0.133 µM; to `Cc1cc2c(ccc(=O)n2-c2cccc(S(C)(=O)=O)c2)c(-c2ccc3c4c(ccnc24)CCO3)c1[C@H](OC(C)(C)C)C(=O)O` (atropisomer, axis not shown) [Example 37, (S)-2-tert-Butoxy-2-((R)-5-(2,3-dihydropyrano[4,3,2-de]quinolin-7-yl)-7-methyl-1-(3-(methylsulfonyl)phenyl)-2-oxo-1,2-dihydroquinolin-6-yl)acetic acid], 8.43 µM; to `Cc1cc2nc(NC(=O)c3ccccc3)ccc2c(-c2ccc3c4c(ccnc24)CCO3)c1[C@H](OC(C)(C)C)C(=O)O` (atropisomer, axis not shown) [Example 49, (S)-2-((R)-2-Benzamido-5-(2,3-dihydropyrano[4,3,2-de]quinolin-7-yl)-7-methylquinolin-6-yl)-2-tert-butoxyacetic acid], 0.134 µM.

The same assay, now with this note: MT-4 cells infected with HIV-IIIb, 5 days of incubation, CellTiter-Glo readout.
`CCC(C)(CC)O[C@H](C(=O)O)c1c(C)cc2nc(C)ccc2c1-c1ccc2c3c(ccnc13)CCO2` (atropisomer, axis not shown) [Example 41, (S)-2-((R)-5-(2,3-Dihydropyrano[4,3,2-de]quinolin-7-yl)-2,7-dimethylquinolin-6-yl)-2-(3-methylpentan-3-yloxy)acetic acid]: the midpoint of the response, the EC50, lay at 0.039 µM.
